Patent US20080152717A1 (ISP INVESTMENTS, INC., priority 2006, published 2008)

Assay: Relative bioavailability in fasted male Sprague Dawley rats, oral solid dose 100 mg/kg (Example 2)
Type: in vivo
Settings: male Sprague Dawley rat, oral solid dose 100 mg/kg
Experimental: The relative bioavailability of the PVP based composition of Example 1 was compared to the crystalline form in male Sprague Dawley rat in a parallel study design. An oral, solid dose of 100 mg/kg was administered to the rats in the fasted state.

SMILES: CCCCC(=O)N(Cc1ccc(-c2ccccc2-c2nnn[nH]2)cc1)[C@H](C(=O)O)C(C)C [Valsartan, N-(1-oxopentyl)-N-[[2′-(1H-tetrazol-5-yl) [biphenyl]-4-yl]methyl]-L-valine]
- AUC0-24h (area under the drug plasma concentration vs. time profile): 40000 ng·h/mL
